Inhibition and remaining activity data for one molecule are collected here from US9492471B2, “Methods of treating a disease or disorder associated with Bruton'S Tyrosine Kinase” (Celgene Avilomics Research, Inc., priority 2013, dated 2016).

Read-outs that look alike come from different tables or passages of the source.

What all share (assay): HotSpot kinase profiling
Holding throughout (format): biochemical

One test deals with T1, EPHB1 (Homo sapiens, UniProt P54762).
T1 construct: purchased Reaction Biology Corp
T1 sequence (P54762 18-984): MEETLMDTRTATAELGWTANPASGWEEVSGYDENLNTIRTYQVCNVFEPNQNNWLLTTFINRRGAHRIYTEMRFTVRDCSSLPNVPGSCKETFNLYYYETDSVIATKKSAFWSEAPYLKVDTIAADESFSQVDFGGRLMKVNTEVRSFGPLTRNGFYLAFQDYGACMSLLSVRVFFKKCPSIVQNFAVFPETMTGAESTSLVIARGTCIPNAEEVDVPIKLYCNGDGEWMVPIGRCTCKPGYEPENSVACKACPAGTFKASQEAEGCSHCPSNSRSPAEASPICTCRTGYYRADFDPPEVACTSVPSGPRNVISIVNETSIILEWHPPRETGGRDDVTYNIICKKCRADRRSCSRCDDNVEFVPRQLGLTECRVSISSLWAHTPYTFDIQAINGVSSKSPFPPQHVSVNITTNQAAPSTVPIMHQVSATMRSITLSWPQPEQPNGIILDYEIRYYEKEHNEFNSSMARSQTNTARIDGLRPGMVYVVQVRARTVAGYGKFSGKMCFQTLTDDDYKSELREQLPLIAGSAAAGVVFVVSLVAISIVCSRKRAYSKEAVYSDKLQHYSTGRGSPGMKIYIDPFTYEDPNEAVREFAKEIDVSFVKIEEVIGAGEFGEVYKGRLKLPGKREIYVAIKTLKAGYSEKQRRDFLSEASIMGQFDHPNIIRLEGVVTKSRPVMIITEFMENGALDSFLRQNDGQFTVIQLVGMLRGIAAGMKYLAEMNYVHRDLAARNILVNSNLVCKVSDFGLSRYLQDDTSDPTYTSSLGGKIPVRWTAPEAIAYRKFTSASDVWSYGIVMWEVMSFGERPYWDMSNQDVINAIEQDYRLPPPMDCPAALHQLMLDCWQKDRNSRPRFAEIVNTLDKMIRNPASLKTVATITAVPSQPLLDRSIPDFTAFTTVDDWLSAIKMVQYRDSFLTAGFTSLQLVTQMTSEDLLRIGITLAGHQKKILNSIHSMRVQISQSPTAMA
An outline of the steps: (§1)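 Percent inhibition, averaged when run more than once and referenced to a DMSO negative control, came from a radioactive filter-binding readout on P81 paper. Reactions of kinase with freshly made substrate and cofactors ran for 2 h at room temperature.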

A further test concerns the target T2, GSK3b (Homo sapiens, UniProt P49841).
T2 construct: purchased Reaction Biology Corp
The gist of the method:
as §1

Another test has as its target T3, HGK/MAP4K4 (Homo sapiens, UniProt O95819).
T3 construct: purchased Reaction Biology Corp
An outline of the steps:
as §1

In the next test the target is T4, ULK1 (Homo sapiens, UniProt O75385).
T4 construct: purchased Reaction Biology Corp
T4 sequence (O75385 1-1050): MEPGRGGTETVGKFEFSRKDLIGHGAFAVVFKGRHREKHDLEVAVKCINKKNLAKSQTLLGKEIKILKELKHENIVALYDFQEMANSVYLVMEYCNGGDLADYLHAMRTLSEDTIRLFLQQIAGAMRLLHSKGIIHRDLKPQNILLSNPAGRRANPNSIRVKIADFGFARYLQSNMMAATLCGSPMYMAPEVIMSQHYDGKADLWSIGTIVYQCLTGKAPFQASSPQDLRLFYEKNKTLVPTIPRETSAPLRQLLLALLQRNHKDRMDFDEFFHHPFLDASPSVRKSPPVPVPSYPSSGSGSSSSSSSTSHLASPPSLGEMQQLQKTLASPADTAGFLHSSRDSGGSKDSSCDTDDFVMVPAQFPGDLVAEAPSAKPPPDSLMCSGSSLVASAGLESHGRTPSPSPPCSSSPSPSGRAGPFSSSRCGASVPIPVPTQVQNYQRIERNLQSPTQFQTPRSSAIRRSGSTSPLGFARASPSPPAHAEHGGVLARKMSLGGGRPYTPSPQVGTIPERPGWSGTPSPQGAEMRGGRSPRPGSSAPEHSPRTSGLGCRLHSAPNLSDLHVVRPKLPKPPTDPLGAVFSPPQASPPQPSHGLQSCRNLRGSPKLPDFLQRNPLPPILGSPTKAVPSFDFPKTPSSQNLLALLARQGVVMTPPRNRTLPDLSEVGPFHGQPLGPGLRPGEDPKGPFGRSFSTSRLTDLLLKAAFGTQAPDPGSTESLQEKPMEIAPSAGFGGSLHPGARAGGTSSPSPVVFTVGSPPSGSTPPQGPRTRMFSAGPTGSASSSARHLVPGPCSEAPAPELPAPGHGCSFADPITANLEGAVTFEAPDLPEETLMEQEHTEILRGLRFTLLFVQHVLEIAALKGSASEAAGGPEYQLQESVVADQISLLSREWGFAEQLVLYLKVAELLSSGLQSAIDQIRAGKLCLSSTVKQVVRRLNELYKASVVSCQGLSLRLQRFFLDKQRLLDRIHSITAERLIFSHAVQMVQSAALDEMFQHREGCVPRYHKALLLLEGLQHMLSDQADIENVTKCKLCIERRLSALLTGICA
An outline of the steps: as §1

[1] abbreviates: read-out: % Enzyme Activity (relative to DMSO controls) Run 1.
The mark [2] stands for this setting: read-out: % Enzyme Activity (relative to DMSO controls) Run 2.

T2 sequence (P49841 whole entry): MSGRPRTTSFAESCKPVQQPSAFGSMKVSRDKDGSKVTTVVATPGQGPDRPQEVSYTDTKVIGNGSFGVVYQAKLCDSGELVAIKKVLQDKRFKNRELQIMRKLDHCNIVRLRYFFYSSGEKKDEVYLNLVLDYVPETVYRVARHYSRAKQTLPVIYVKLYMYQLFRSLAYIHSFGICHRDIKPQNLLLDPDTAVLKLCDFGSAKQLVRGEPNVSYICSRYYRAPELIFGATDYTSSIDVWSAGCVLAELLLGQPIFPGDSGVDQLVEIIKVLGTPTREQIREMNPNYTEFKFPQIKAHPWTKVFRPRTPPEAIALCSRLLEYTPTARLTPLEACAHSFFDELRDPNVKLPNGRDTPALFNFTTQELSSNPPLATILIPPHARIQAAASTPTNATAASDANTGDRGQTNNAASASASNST
T3 sequence (O95819 whole entry): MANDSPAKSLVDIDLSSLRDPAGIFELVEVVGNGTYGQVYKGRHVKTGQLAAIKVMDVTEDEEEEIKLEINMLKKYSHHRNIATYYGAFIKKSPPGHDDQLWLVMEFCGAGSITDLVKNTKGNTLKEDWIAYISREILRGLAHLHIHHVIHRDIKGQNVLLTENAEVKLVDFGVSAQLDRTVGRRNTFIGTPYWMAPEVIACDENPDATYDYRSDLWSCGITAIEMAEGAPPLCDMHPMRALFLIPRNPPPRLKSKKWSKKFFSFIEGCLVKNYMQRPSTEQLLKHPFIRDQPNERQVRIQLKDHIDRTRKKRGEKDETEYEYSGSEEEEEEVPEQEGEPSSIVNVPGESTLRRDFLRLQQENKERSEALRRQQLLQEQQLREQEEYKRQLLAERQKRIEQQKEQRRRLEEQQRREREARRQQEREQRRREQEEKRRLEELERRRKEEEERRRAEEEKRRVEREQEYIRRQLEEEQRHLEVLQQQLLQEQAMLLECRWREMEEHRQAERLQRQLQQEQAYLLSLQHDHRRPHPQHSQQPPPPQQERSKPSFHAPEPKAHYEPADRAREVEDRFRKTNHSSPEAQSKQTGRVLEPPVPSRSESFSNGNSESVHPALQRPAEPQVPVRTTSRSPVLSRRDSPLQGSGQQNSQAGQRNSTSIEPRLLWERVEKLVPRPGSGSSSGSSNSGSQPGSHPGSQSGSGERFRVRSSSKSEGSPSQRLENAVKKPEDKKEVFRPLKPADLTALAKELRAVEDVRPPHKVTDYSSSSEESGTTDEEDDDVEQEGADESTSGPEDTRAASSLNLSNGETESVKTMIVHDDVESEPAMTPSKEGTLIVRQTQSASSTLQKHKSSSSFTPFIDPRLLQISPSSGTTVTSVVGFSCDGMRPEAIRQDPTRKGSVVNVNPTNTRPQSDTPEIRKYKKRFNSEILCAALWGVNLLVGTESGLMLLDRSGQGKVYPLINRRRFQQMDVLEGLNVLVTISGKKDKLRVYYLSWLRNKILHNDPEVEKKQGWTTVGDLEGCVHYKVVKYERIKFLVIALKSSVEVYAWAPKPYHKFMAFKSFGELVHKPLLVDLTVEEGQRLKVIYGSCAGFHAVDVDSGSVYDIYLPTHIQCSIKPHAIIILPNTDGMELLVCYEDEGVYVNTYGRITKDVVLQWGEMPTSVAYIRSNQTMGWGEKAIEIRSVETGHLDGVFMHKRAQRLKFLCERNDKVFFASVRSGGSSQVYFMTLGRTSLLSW

What is called inhibition is the drop in the measured response relative to a control, in per cent. As for `C=CC(=O)Nc1cccc(Nc2nc(Nc3ccc(OCCOC)c(F)c3)ncc2F)c1` [Compound 2], the inhibition at 3 µM on EPHB1 was 20.4%; against GSK3b it was -22.2%; against HGK/MAP4K4 it was 1.27%; on ULK1 it was -0.59%. In addition, the remaining activity at 3 µM on EPHB1 (setting [1]) was found to be 79.5%; on EPHB1 (setting [2]), 79.7%; on GSK3b (setting [1]) it was 122%; on GSK3b (setting [2]), 123%; at HGK/MAP4K4 (setting [1]) it was 98.9%; at HGK/MAP4K4 (setting [2]), 98.6%. The results for the remaining activity at 3 µM at ULK1 (setting [1]) and at ULK1 (setting [2]) were 100% and 101%, respectively.
